In PubChem BioAssay AID1259407 (Chemical Carcinogenesis Research Information System (CCRIS), 2018):
The source made the active and inactive calls. No rule for the calls is given here.

System: CCRIS mutagenicity, Ames/micronucleus/aberration tests
Experiment: CCRIS mutagenicity studies

O=CCCCC=O
mutagenic call (End Point: IN VITRO CHROMOSOMAL ABERRATIONS, Test System: CHL CELLS, Metabolic Activation: RAT, LIVER, S-9, SODIUM PHENOBARBITAL AND 5,6-BENZOFLAVONE): active; positive (structural and ploidy changes)
mutagenic call (End Point: IN VITRO CHROMOSOMAL ABERRATIONS, Test System: SYRIAN HAMSTER EMBRYO (SHE) CELLS, Metabolic Activation: NONE): inactive; negative
mutagenic call (End Point: IN VITRO CHROMOSOMAL ABERRATIONS, Test System: SYRIAN HAMSTER EMBRYO (SHE) CELLS, Metabolic Activation: RAT, LIVER, S-9): inactive; negative
mutagenic call (End Point: In vitro micronucleus, Test System: Chinese hamster V79 cells, Metabolic Activation: None): active; positive (concentrations of 10 um and above strongly inhibited growth of cells,
mutagenic call (End Point: In vitro micronucleus, Test System: Chinese hamster V79 cells, Metabolic Activation: None, Method: FISH): inactive; positive (majority were centromer negative. authors attribute results as showing
mutagenic call (Test System: AMES SALMONELLA TYPHIMURIUM, Strain/Indicator: TA97A, Metabolic Activation: NONE, Method: STANDARD PLATE): inactive; negative
mutagenic call (Test System: AMES SALMONELLA TYPHIMURIUM, Strain/Indicator: TA98, Metabolic Activation: HAMSTER LIVER S-9, AROCLOR-1254 (10%), Method: PREINCUBATION): inactive; negative
mutagenic call (Test System: AMES SALMONELLA TYPHIMURIUM, Strain/Indicator: TA98, Metabolic Activation: NONE, Method: STANDARD PLATE): inactive; negative
mutagenic call (Test System: AMES SALMONELLA TYPHIMURIUM, Strain/Indicator: TA98, Metabolic Activation: RAT LIVER S-9, AROCLOR-1254 (10%), Method: PREINCUBATION): inactive; negative
mutagenic call (Test System: AMES SALMONELLA TYPHIMURIUM, Strain/Indicator: TA98, Metabolic Activation: RAT LIVER S-9, PHENOBARBITAL AND BETA-NAPHTHOFLAVONE, Method: PREINCUBATION): inactive; negative
mutagenic call (Test System: AMES SALMONELLA TYPHIMURIUM, Strain/Indicator: TA100, Metabolic Activation: HAMSTER LIVER S-9, AROCLOR-1254 (10%), Method: PREINCUBATION): inactive; negative
mutagenic call (Test System: AMES SALMONELLA TYPHIMURIUM, Strain/Indicator: TA100, Metabolic Activation: MOUSE LIVER S-9, AROCLOR 1254, Method: PREINCUBATION): active; positive
mutagenic call (Test System: AMES SALMONELLA TYPHIMURIUM, Strain/Indicator: TA100, Metabolic Activation: NONE, Method: STANDARD PLATE): inactive; negative
mutagenic call (Test System: AMES SALMONELLA TYPHIMURIUM, Strain/Indicator: TA100, Metabolic Activation: RAT LIVER S-9, AROCLOR 1254, Method: PREINCUBATION): active; positive
mutagenic call (Test System: AMES SALMONELLA TYPHIMURIUM, Strain/Indicator: TA100, Metabolic Activation: RAT LIVER S-9, PHENOBARBITAL AND BETA-NAPHTHOFLAVONE NONE, Method: PREINCUBATION): inactive; negative
mutagenic call (Test System: AMES SALMONELLA TYPHIMURIUM, Strain/Indicator: TA102, Metabolic Activation: MOUSE LIVER S-9, AROCLOR 1254, Method: PREINCUBATION): active; positive
mutagenic call (Test System: AMES SALMONELLA TYPHIMURIUM, Strain/Indicator: TA102, Metabolic Activation: MOUSE LIVER S-9, AROCLOR-1254 (10%), Method: PREINCUBATION): active; positive
mutagenic call (Test System: AMES SALMONELLA TYPHIMURIUM, Strain/Indicator: TA102, Metabolic Activation: NONE, Method: PREINCUBATION): active; positive
mutagenic call (Test System: AMES SALMONELLA TYPHIMURIUM, Strain/Indicator: TA102, Metabolic Activation: RAT LIVER S-9, AROCLOR 1254, Method: PREINCUBATION): active; positive
mutagenic call (Test System: AMES SALMONELLA TYPHIMURIUM, Strain/Indicator: TA102, Metabolic Activation: RAT LIVER S-9, AROCLOR-1254 (10%), Method: PREINCUBATION): active; positive
mutagenic call (Test System: AMES SALMONELLA TYPHIMURIUM, Strain/Indicator: TA104, Metabolic Activation: MOUSE LIVER S-9, AROCLOR 1254, Method: PREINCUBATION): active; positive
mutagenic call (Test System: AMES SALMONELLA TYPHIMURIUM, Strain/Indicator: TA104, Metabolic Activation: MOUSE LIVER S-9, AROCLOR-1254 (10%), Method: PREINCUBATION): active; positive
mutagenic call (Test System: AMES SALMONELLA TYPHIMURIUM, Strain/Indicator: TA104, Metabolic Activation: NONE, Method: PREINCUBATION): active; positive
mutagenic call (Test System: AMES SALMONELLA TYPHIMURIUM, Strain/Indicator: TA104, Metabolic Activation: NONE, Method: STANDARD PLATE): inactive; negative
mutagenic call (Test System: AMES SALMONELLA TYPHIMURIUM, Strain/Indicator: TA104, Metabolic Activation: RAT LIVER S-9, AROCLOR 1254, Method: PREINCUBATION): active; positive
mutagenic call (Test System: AMES SALMONELLA TYPHIMURIUM, Strain/Indicator: TA104, Metabolic Activation: RAT LIVER S-9, AROCLOR-1254 (10%), Method: PREINCUBATION): active; positive
mutagenic call (Test System: AMES SALMONELLA TYPHIMURIUM, Strain/Indicator: TA1535, Metabolic Activation: HAMSTER LIVER S-9, AROCLOR-1254 (10%), Method: PREINCUBATION): inactive; negative
mutagenic call (Test System: AMES SALMONELLA TYPHIMURIUM, Strain/Indicator: TA1535, Metabolic Activation: NONE, Method: PREINCUBATION): inactive; negative
mutagenic call (Test System: AMES SALMONELLA TYPHIMURIUM, Strain/Indicator: TA1535, Metabolic Activation: RAT LIVER S-9, AROCLOR-1254 (10%), Method: PREINCUBATION): inactive; negative
mutagenic call (Test System: AMES SALMONELLA TYPHIMURIUM, Strain/Indicator: TA1535, Metabolic Activation: RAT LIVER S-9, PHENOBARBITAL AND BETA-NAPHTHOFLAVONE NONE, Method: PREINCUBATION): inactive; negative
mutagenic call (Test System: AMES SALMONELLA TYPHIMURIUM, Strain/Indicator: TA1537, Metabolic Activation: HAMSTER LIVER S-9, AROCLOR-1254 (10%), Method: PREINCUBATION): inactive; negative
mutagenic call (Test System: AMES SALMONELLA TYPHIMURIUM, Strain/Indicator: TA1537, Metabolic Activation: NONE, Method: PREINCUBATION): inactive; negative
mutagenic call (Test System: AMES SALMONELLA TYPHIMURIUM, Strain/Indicator: TA1537, Metabolic Activation: RAT LIVER S-9, AROCLOR-1254 (10%), Method: PREINCUBATION): inactive; negative
mutagenic call (Test System: AMES SALMONELLA TYPHIMURIUM, Strain/Indicator: TA1537, Metabolic Activation: RAT LIVER S-9, PHENOBARBITAL AND BETA-NAPHTHOFLAVONE NONE, Method: PREINCUBATION): inactive; negative
mutagenic call (Test System: AMES SALMONELLA TYPHIMURIUM, Strain/Indicator: TA2638, Metabolic Activation: NONE, Method: STANDARD PLATE): active; positive
mutagenic call (Test System: AMES SALMONELLA TYPHIMURIUM, Strain/Indicator: TA2638A, Metabolic Activation: NONE, Method: STANDARD PLATE): active; positive
mutagenic call (Test System: E. COLI, Strain/Indicator: WP2 UVRA (PKM101), Metabolic Activation: NONE, Method: STANDARD PLATE): active; positive
mutagenic call (Test System: E. COLI, Strain/Indicator: WP2UVRA, Metabolic Activation: NONE, Method: PREINCUBATION): inactive; negative
mutagenic call (Test System: E. COLI, Strain/Indicator: WP2UVRA, Metabolic Activation: RAT LIVER S-9, PHENOBARBITAL AND BETA-NAPHTHOFLAVONE, Method: PREINCUBATION): inactive; negative
mutagenic call (Test System: MOUSE LYMPHOMA, Strain/Indicator: L5178Y (TRIFLUOROTHYMIDINE), Metabolic Activation: NONE, Method: SUSPENSION/PLATE): active; positive
mutagenic call (Test System: UDS RODENT HEPATOCYTES, Strain/Indicator: THY INCORP (NON-S-PHASE), Metabolic Activation: NONE, Method: AUTORADIOGRAPHY): active; positive

CC(=O)[C@]1(O)Cc2c(O)c3c(c(O)c2[C@@H](O[C@H]2C[C@H](N)[C@H](OC(C[C@H](C)O)O[C@@H](C)C=O)[C@H](C)O2)C1)C(=O)c1c(O)cccc1C3=O (some centres undefined)
mutagenic call (Test System: AMES SALMONELLA TYPHIMURIUM, Strain/Indicator: TA98, Metabolic Activation: NONE, Method: PREINCUBATION): active; positive
mutagenic call (Test System: AMES SALMONELLA TYPHIMURIUM, Strain/Indicator: TA98, Metabolic Activation: RAT, LIVER, S-9, Method: PREINCUBATION): active; positive
mutagenic call (Test System: AMES SALMONELLA TYPHIMURIUM, Strain/Indicator: TA98, Metabolic Activation: S-9, Method: PREINCUBATION): active; positive
mutagenic call (Test System: AMES SALMONELLA TYPHIMURIUM, Strain/Indicator: TA100, Metabolic Activation: NONE, Method: PREINCUBATION): active; positive
mutagenic call (Test System: AMES SALMONELLA TYPHIMURIUM, Strain/Indicator: TA100, Metabolic Activation: RAT, LIVER, S-9, Method: PREINCUBATION): active; positive
mutagenic call (Test System: AMES SALMONELLA TYPHIMURIUM, Strain/Indicator: TA100, Metabolic Activation: S-9, Method: PREINCUBATION): active; positive
mutagenic call (Test System: CHINESE HAMSTER V-79, Strain/Indicator: V-79/6-THIOGUANINE, Metabolic Activation: NONE): active; positive
mutagenic call (Test System: CHINESE HAMSTER V-79, Strain/Indicator: V-79/6-THIOGUANINE, Metabolic Activation: NONE, Method: REPLATING): active; positive
